Laboratory results: ChEMBL document CHEMBL1201862, “PubChem BioAssay data set” (2004)
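Grown in 96-well plates, cells were treated for 48 hours with each compound at five concentrations. Insufficient inhibition: endpoint recorded as highest concentration tested. GI50: concentration for 50% inhibition of growth.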 The source made the active and inactive calls. No stated cut-off is given here; in the data, active = GI50 up to about 1.1 µM and inactive = higher.

Key:
Assay in all cases: NCI-60 cell line screen, 48 h
ACHN = test system: ACHN
MOLT-4 = test system: MOLT-4
EKVX = test system: EKVX
HOP-62 = test system: HOP-62
Malme-3M = test system: Malme-3M
HCT-15 = test system: HCT-15
OVCAR-8 = test system: OVCAR-8
MDA-MB-435 = test system: MDA-MB-435
786-0 = test system: 786-0
NCI-H226 = test system: NCI-H226
HL-60 = test system: HL-60
LOX IMVI = test system: LOX IMVI
M14 = test system: M14
DU-145 = test system: DU-145
IGROV-1 = test system: IGROV-1
SN12C = test system: SN12C
SNB-19 = test system: SNB-19
CAKI-1 = test system: CAKI-1
NCI-H23 = test system: NCI-H23
SF-268 = test system: SF-268

With `N#CCCN(CCC#N)c1ccc(/C=C2\N=C(c3ccccc3)N(c3ccccc3)C2=O)cc1` the GI50 (ACHN) was > 100 µM (inactive), the GI50 (MOLT-4) was 8.59 µM (inactive) and the GI50 (EKVX) was > 100 µM (inactive). The GI50 (HOP-62) was > 100 µM (inactive), the GI50 (Malme-3M) was > 100 µM (inactive) and the GI50 (HCT-15) was 6.25 µM. For the same molecule, the GI50 (OVCAR-8) was > 100 µM (inactive), the GI50 (MDA-MB-435) was > 100 µM (inactive) and the GI50 (786-0) was 17 µM (inactive). The GI50 (NCI-H226) was > 100 µM (inactive), the GI50 (HL-60) was 3.07 µM (inactive) and the GI50 (LOX IMVI) was 7.21 µM (inactive). For the same molecule, the GI50 (M14) was > 100 µM (inactive), the GI50 (DU-145) was > 100 µM (inactive) and the GI50 (IGROV-1) was 25.8 µM (inactive). The GI50 (SN12C) was > 100 µM (inactive) and the GI50 (SNB-19) was > 100 µM (inactive).
For `COc1ccccc1N1C(=O)CC(=O)N(C(=O)CCCCCCCCC(=O)N2C(=O)CC(=O)N(c3ccccc3OC)C2=S)C1=S`, the GI50 (ACHN) was > 100 µM (inactive), the GI50 (CAKI-1) was > 100 µM (inactive) and the GI50 (NCI-H23) was 53.6 µM (inactive). The GI50 (MOLT-4) was 35.1 µM (inactive), the GI50 (EKVX) was 51.8 µM (inactive) and the GI50 (HOP-62) was > 100 µM (inactive). For the same molecule, the GI50 (Malme-3M) was > 100 µM (inactive), the GI50 (HCT-15) was 96.4 µM and the GI50 (OVCAR-8) was 63.2 µM (inactive). The GI50 (MDA-MB-435) was > 100 µM (inactive), the GI50 (786-0) was > 100 µM (inactive) and the GI50 (NCI-H226) was > 100 µM (inactive). The GI50 (SF-268) was > 100 µM (inactive), the GI50 (LOX IMVI) was 95.3 µM (inactive) and the GI50 (M14) was 69.7 µM (inactive). The GI50 (DU-145) was > 100 µM (inactive), the GI50 (SN12C) was > 100 µM (inactive) and the GI50 (SNB-19) was 74.1 µM (inactive).
For `Cc1ccc(S(=O)(=O)C2=C(C(C)C)N=NC2(C)C)cc1`, the GI50 (ACHN) was > 100 µM (inactive), the GI50 (CAKI-1) was 26.7 µM (inactive) and the GI50 (NCI-H23) was 48.8 µM (inactive). The GI50 (MOLT-4) was 18.7 µM (inactive), the GI50 (EKVX) was > 100 µM (inactive) and the GI50 (HOP-62) was > 100 µM (inactive). For the same molecule, the GI50 (HCT-15) was 73.6 µM, the GI50 (OVCAR-8) was > 100 µM (inactive) and the GI50 (MDA-MB-435) was 47.6 µM (inactive). The GI50 (786-0) was > 100 µM (inactive), the GI50 (NCI-H226) was 61.8 µM (inactive) and the GI50 (SF-268) was > 100 µM (inactive). The GI50 (HL-60) was > 100 µM (inactive), the GI50 (LOX IMVI) was 88.9 µM (inactive) and the GI50 (M14) was > 100 µM (inactive). For the same molecule, the GI50 (DU-145) was 87.1 µM (inactive), the GI50 (IGROV-1) was 91.4 µM (inactive) and the GI50 (SN12C) was > 100 µM (inactive). The GI50 (SNB-19) was > 100 µM (inactive).
`CCOC(=O)CSc1nc(-c2ccc(OC)cc2)c(C#N)c(=O)[nH]1` was tested, and the GI50 (ACHN) was > 100 µM (inactive), the GI50 (CAKI-1) was > 100 µM (inactive) and the GI50 (NCI-H23) was > 100 µM (inactive). The GI50 (MOLT-4) was > 100 µM (inactive), the GI50 (EKVX) was > 100 µM (inactive) and the GI50 (HOP-62) was > 100 µM (inactive). For the same molecule, the GI50 (HCT-15) was greater than 100 µM, the GI50 (OVCAR-8) was > 100 µM (inactive) and the GI50 (MDA-MB-435) was > 100 µM (inactive). The GI50 (786-0) was > 100 µM (inactive), the GI50 (NCI-H226) was > 100 µM (inactive) and the GI50 (SF-268) was > 100 µM (inactive). For the same molecule, the GI50 (HL-60) was 0.0495 µM (active), the GI50 (M14) was > 100 µM (inactive) and the GI50 (DU-145) was > 100 µM (inactive). The GI50 (IGROV-1) was > 100 µM (inactive), the GI50 (SN12C) was > 100 µM (inactive) and the GI50 (SNB-19) was > 100 µM (inactive).
With `Cc1cc(C)nc(NC(=S)Nc2ccc([N+](=O)[O-])cc2)c1` the GI50 (ACHN) was > 100 µM (inactive), the GI50 (CAKI-1) was > 100 µM (inactive) and the GI50 (NCI-H23) was > 100 µM (inactive). The GI50 (MOLT-4) was > 100 µM (inactive), the GI50 (EKVX) was > 100 µM (inactive) and the GI50 (HOP-62) was > 100 µM (inactive). The GI50 (HCT-15) was greater than 100 µM, the GI50 (OVCAR-8) was > 100 µM (inactive) and the GI50 (MDA-MB-435) was > 100 µM (inactive). For the same molecule, the GI50 (786-0) was > 100 µM (inactive), the GI50 (NCI-H226) was > 100 µM (inactive) and the GI50 (SF-268) was > 100 µM (inactive). The GI50 (HL-60) was > 100 µM (inactive), the GI50 (LOX IMVI) was > 100 µM (inactive) and the GI50 (DU-145) was > 100 µM (inactive). For the same molecule, the GI50 (IGROV-1) was > 100 µM (inactive) and the GI50 (SNB-19) was > 100 µM (inactive).
With `CCCCN(CCCC)CC(O)c1cc(-c2ccc(C(F)(F)F)cc2)nc(-c2ccc(C(F)(F)F)cc2)c1` (stereo not given) the GI50 (ACHN) was > 100 µM (inactive), the GI50 (CAKI-1) was > 100 µM (inactive) and the GI50 (NCI-H23) was > 100 µM (inactive). For the same molecule, the GI50 (MOLT-4) was > 100 µM (inactive), the GI50 (EKVX) was 39.4 µM (inactive) and the GI50 (HOP-62) was 70.8 µM (inactive). The GI50 (Malme-3M) was 44 µM (inactive), the GI50 (HCT-15) was 26.4 µM and the GI50 (OVCAR-8) was > 100 µM (inactive). For the same molecule, the GI50 (MDA-MB-435) was 59.6 µM (inactive), the GI50 (786-0) was 61.1 µM (inactive) and the GI50 (SF-268) was > 100 µM (inactive). The GI50 (HL-60) was 32 µM (inactive), the GI50 (LOX IMVI) was 35 µM (inactive) and the GI50 (M14) was 91.4 µM (inactive). The GI50 (DU-145) was > 100 µM (inactive), the GI50 (IGROV-1) was > 100 µM (inactive) and the GI50 (SN12C) was 26.1 µM (inactive). The GI50 (SNB-19) was > 100 µM (inactive).
For `O=C(O)c1ccccc1/C=N\N(CCO)C1=NCCN1`, the GI50 (ACHN) was > 100 µM (inactive), the GI50 (NCI-H23) was > 100 µM (inactive) and the GI50 (MOLT-4) was > 100 µM (inactive). For the same molecule, the GI50 (EKVX) was > 100 µM (inactive), the GI50 (HOP-62) was > 100 µM (inactive) and the GI50 (Malme-3M) was > 100 µM (inactive). For the same molecule, the GI50 (HCT-15) was greater than 100 µM, the GI50 (OVCAR-8) was > 100 µM (inactive) and the GI50 (MDA-MB-435) was > 100 µM (inactive). The GI50 (786-0) was > 100 µM (inactive), the GI50 (NCI-H226) was > 100 µM (inactive) and the GI50 (SF-268) was > 100 µM (inactive). For the same molecule, the GI50 (HL-60) was > 100 µM (inactive), the GI50 (LOX IMVI) was > 100 µM (inactive) and the GI50 (M14) was > 100 µM (inactive). The GI50 (DU-145) was > 100 µM (inactive), the GI50 (IGROV-1) was > 100 µM (inactive) and the GI50 (SN12C) was > 100 µM (inactive). For the same molecule, the GI50 (SNB-19) was > 100 µM (inactive).
`CC(C)c1cc(C(C)C)c(Cl)c(Cl)c1O.CC(C)c1cc(Cl)c(O)c(C(C)C)c1Cl` was tested, and the GI50 (ACHN) was 23.4 µM (inactive), the GI50 (CAKI-1) was 20.5 µM (inactive) and the GI50 (NCI-H23) was 39.2 µM (inactive). For the same molecule, the GI50 (EKVX) was 20.5 µM (inactive), the GI50 (HOP-62) was 32.7 µM (inactive) and the GI50 (Malme-3M) was 24.8 µM (inactive). The GI50 (HCT-15) was 36.7 µM, the GI50 (OVCAR-8) was 26.7 µM (inactive) and the GI50 (MDA-MB-435) was 21.4 µM (inactive). For the same molecule, the GI50 (786-0) was 34.5 µM (inactive), the GI50 (SF-268) was 18.8 µM (inactive) and the GI50 (HL-60) was 18.3 µM (inactive). For the same molecule, the GI50 (LOX IMVI) was 32.3 µM (inactive), the GI50 (M14) was 71.8 µM (inactive) and the GI50 (DU-145) was 35 µM (inactive). For the same molecule, the GI50 (IGROV-1) was 21.6 µM (inactive), the GI50 (SN12C) was 22.4 µM (inactive) and the GI50 (SNB-19) was 23 µM (inactive).
